Key:
[1] = target: Cyclin-dependent kinase 5 (Homo sapiens, UniProt Q00535); assay: Inhibition of CDK5
[2] = target: Glycogen synthase kinase-3 beta (Homo sapiens, UniProt P49841); assay: Inhibition of GSK3-beta
[3] = target: Cyclin-dependent kinase 1/cyclin B1 (Homo sapiens, UniProt P06493); assay: Inhibition of CDK1/cyclin B; assay type: protein-complex assay
[4] = Inhibition of tubulin polymerization

Sequence of Glycogen synthase kinase-3 beta (P49841 whole entry): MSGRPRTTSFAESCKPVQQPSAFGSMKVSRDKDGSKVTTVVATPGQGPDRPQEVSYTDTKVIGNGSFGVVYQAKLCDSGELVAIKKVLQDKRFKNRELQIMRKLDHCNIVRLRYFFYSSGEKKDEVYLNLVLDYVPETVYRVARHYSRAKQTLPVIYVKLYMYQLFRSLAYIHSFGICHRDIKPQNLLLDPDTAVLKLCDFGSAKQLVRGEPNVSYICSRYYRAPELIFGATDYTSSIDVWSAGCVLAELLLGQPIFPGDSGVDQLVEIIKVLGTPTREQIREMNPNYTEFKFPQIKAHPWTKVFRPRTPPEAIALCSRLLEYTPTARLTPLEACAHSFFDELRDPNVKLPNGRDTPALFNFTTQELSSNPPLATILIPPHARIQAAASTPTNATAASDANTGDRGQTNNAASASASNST
Sequence of Cyclin-dependent kinase 1/cyclin B1 (P06493 whole entry): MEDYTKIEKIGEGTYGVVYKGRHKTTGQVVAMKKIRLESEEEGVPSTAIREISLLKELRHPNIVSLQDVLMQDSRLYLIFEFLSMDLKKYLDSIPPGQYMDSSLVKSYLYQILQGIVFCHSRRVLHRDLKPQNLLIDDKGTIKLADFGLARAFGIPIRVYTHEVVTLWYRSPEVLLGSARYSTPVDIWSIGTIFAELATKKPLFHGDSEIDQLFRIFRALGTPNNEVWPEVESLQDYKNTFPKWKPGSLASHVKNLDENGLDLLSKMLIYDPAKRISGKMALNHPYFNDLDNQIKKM
Sequence of Cyclin-dependent kinase 1/cyclin B1 (P14635 whole entry, further chain): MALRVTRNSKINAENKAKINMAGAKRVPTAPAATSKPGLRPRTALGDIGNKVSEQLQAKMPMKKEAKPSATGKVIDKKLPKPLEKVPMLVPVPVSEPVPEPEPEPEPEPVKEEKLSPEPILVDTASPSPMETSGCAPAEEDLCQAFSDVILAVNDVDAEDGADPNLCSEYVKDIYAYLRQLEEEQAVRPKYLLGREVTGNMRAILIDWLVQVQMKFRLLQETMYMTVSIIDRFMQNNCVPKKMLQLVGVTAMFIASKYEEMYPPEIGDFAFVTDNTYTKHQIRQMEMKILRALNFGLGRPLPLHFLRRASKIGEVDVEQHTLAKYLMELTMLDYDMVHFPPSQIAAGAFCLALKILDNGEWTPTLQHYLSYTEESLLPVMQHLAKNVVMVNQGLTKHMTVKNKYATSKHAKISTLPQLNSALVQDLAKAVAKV
Sequence of Cyclin-dependent kinase 5 (Q00535 whole entry): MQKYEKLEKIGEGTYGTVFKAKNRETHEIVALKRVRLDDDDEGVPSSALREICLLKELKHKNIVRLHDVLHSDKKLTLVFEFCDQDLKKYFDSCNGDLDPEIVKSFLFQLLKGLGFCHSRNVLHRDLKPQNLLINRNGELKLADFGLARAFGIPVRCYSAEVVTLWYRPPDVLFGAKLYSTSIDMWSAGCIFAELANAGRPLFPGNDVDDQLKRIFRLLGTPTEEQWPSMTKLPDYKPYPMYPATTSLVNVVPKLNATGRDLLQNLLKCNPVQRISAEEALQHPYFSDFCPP

| IC50 [1] | IC50 [2] | IC50 [3] | IC50 [4] | Structure (SMILES) |
| --- | --- | --- | --- | --- |
| > 50 µM | > 50 µM |  |  | COc1ccc(-c2coc3[nH]c(=O)c4cccn4c23)cc1OC |
| 30 µM | 11 µM | 22 µM |  | COc1ccc(-c2c[nH]c3c2-n2cccc2C3=O)cc1O |
| > 50 µM | > 50 µM | > 50 µM |  | O=C1c2[nH]cc(-c3ccc(Cl)cc3)c2-n2cccc21 |
| > 50 µM | > 50 µM |  |  | COc1ccc(-c2c[nH]c3c2-n2cccc2C3=O)cc1OC |
| > 50 µM | > 50 µM |  |  | O=c1[nH]c2[nH]cc(-c3ccc(Cl)cc3)c2n2cccc12 |
| > 50 µM | > 50 µM |  |  | O=c1[nH]c2occ(-c3ccc(F)cc3)c2n2cccc12 |
|  | > 50 µM | > 50 µM |  | COc1ccc(-c2csc3c2-n2cccc2C3=O)cc1OCc1ccccc1 |
| 3.2 µM | 5.5 µM | 3.8 µM |  | COc1ccc(-c2c[nH]c3c2-n2cccc2/C3=N/O)cc1O |
| > 50 µM | > 50 µM |  |  | O=c1[nH]c2occ(-c3ccc(Cl)c(Cl)c3)c2n2cccc12 |
| > 50 µM | > 50 µM |  |  | COc1ccc(-c2coc3[nH]c(=O)c4cccn4c23)cc1 |
| > 50 µM | > 50 µM | > 50 µM |  | COc1ccc(-c2c[nH]c3c2-n2cccc2C3=O)cc1OCc1ccccc1 |
|  |  | 5.5 µM | 2.9 µM | COc1ccc(-c2csc3c2-n2cccc2C3=O)cc1O |
| 14 µM | 17 µM | 9 µM |  | COc1ccc(-c2c[nH]c3c2-n2cccc2/C3=N/O)cc1OCc1ccccc1 |
| > 50 µM | > 50 µM |  |  | O=c1[nH]c2occ(-c3ccc(Br)cc3)c2n2cccc12 |
| > 50 µM | > 50 µM |  |  | Cc1ccc(-c2coc3[nH]c(=O)c4cccn4c23)cc1 |
| > 50 µM | > 50 µM |  |  | COc1ccc(-c2c[nH]c3[nH]c(=O)c4cccn4c23)cc1OC |
| > 50 µM | > 50 µM | > 50 µM |  | COc1ccc(-c2coc3c2-n2cccc2C3=O)cc1OC |
